{"source": "patent US20050257279A1", "about": "“Agouti-related protein deficient cells, non-human transgenic animals and methods of selecting compounds which regulate energy metabolism” (priority 2002, published 2005)", "key": {"[1]": {"tested_on": "primary cultures of rat anterior pituitary cells", "experiment": "Rat pituitary growth hormone (GH) release", "type": "cell-based", "conditions": "15 min incubation", "method": "Rat Pituitary Growth Hormone (GH) Release: Compound functional activity was evaluated by measuring growth hormone secretion from primary cultures of rat anterior pituitary cells (Small, et al., (1998) Regulatory Peptides 75-76 and 301-307). Cells were isolated from rat pituitaries by enzymatic digestion with 250 μg/mL DNAse 1 and 0.5% trypsin in Hanks' balanced salt solution. The cells were suspended in culture medium and adjusted to a concentration of 1.5×10^5 cells/ml and 1.0 ml of this suspension was placed in each well of a 24-well tray. Cells were maintained in a humidified 5% CO2/95% air atmosphere at 37° C. for 3-4 days. The culture medium consisted of DMEM containing 0.37% NaHCO3, 10% horse serum, 2.5% fetal bovine serum, 1% nonessential amino acids, 1% glutamine, 1% nystatin, and 0.1% gentamicin. Before testing compounds for their capacity to […] GH release, cells were washed twice 1.5 hr before and once more immediately before the start of the experiment with the above culture medium containing 25 mM Hepes (pH 7.4). Compounds were tested in quadruplicate by adding them in 1 ml of fresh medium to each well and incubating them at 37° C. for 15 minutes followed by centrifugation at 2000×g for 15 min to remove any cellular material. The supernatant fluid was assayed for GH by a double antibody radioimmunoassay."}, "[2]": {"experiment": "4-hour light-phase food intake in mice", "type": "in vivo", "conditions": "human ghrelin 3 μmole/kg i.p.", "excerpt": "Mice were individually housed at approximately one month of age. Regular mouse chow (Teklad 7012: 5.67% kcal from fat; 3.41 kcal/g, Harlan Teklad) was provided as pellet food in wire cage tops containing food hoppers.\nFood intake values were reported as means ± standard errors of the means, and analyzed by the two tailed, unpaired Student t test. P values of <0.05 were reported as significant."}}, "note": "Entries after “also recorded” stand apart in the source; their conditions may differ."}
{"smiles": "CCCCCCCC(=O)OC[C@H](NC(=O)[C@H](CO)NC(=O)CN)C(=O)N[C@@H](Cc1ccccc1)C(=O)N[C@@H](CC(C)C)C(=O)N[C@@H](CO)C(=O)N1CCC[C@H]1C(=O)N[C@@H](CCC(=O)O)C(=O)N[C@@H](Cc1c[nH]cn1)C(=O)N[C@@H](CCC(N)=O)C(=O)N[C@@H](CCCNC(=N)N)C(=O)N[C@H](C(=O)N[C@@H](CCC(N)=O)C(=O)N[C@@H](CCC(N)=O)C(=O)N[C@@H](CCCNC(=N)N)C(=O)N[C@@H](CCCCN)C(=O)N[C@@H](CCC(=O)O)C(=O)N[C@@H](CO)C(=O)N[C@@H](CCCCN)C(=O)N[C@@H](CCCCN)C(=O)N1CCC[C@H]1C(=O)N1CCC[C@H]1C(=O)N[C@@H](C)C(=O)N[C@@H](CCCCN)C(=O)N[C@@H](CC(C)C)C(=O)N[C@@H](CCC(N)=O)C(=O)N1CCC[C@H]1C(=O)N[C@@H](CCCNC(=N)N)C(=O)O)C(C)C", "note": "[Ghrelin]", "values": [{"measurement": "EC50", "setting": "[1]", "value": 0.7, "unit": "nM"}, {"measurement": "effect on 4-hour food intake", "setting": "[2]; Agrp-/-, Npy-/- double knockout mice", "value": "no effect; also recorded: without effect"}, {"measurement": "stimulation of 4-hour food intake", "setting": "[2]; wild-type control mice, ad libitum fed, relative to saline", "value": 120, "unit": "%"}, {"measurement": "effect on 4-hour food intake", "setting": "[2]; wild-type mice, relative to saline", "value": "stimulated 4-hour food intake"}]}
